What all share (type): cell-based
Common to all, as to settings: CreLuc reporter gene assay
(In a reporter assay the amount or activity of a reporter protein is the signal.)

One assay deals with T1, hGIPR (Homo sapiens, UniProt P48546).
T1 construct: expressed in transfected cells; host or cells: CHO cells carrying a CRE-luciferase reporter gene
T1 sequence (P48546 22-466): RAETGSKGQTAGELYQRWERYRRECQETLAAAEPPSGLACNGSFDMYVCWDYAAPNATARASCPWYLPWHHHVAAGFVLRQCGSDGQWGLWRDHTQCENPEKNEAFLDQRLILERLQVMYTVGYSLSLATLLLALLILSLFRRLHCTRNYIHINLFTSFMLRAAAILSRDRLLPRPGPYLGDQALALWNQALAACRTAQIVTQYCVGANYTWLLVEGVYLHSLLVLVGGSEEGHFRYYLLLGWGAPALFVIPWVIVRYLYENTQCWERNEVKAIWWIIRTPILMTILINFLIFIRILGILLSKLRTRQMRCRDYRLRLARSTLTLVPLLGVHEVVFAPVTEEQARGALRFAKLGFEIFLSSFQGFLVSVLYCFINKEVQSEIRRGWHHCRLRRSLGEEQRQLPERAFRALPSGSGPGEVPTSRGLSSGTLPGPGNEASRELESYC
Description: hGIPR CreLuc reporter gene assay in 0.5% and 100% plasma. Summed up: (§1)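 Agonist EC50s came from 8-concentration curves over four decades, fitted by non-linear variable-slope regression of CRE-driven luciferase luminescence. Cells were exposed 4 h at 37 °C, in buffer with 0.5% human plasma or in 100% plasma; GIPR was expressed in CHO cells, GLP-1R and NPY2R in HEK cells.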

For another assay, the target named is T2, hNPY2R (Homo sapiens, UniProt P49146).
T2 construct: expressed in transfected cells; host or cells: HEK-293 cells carrying a CRE-luciferase reporter gene
T2 sequence (P49146 1-381): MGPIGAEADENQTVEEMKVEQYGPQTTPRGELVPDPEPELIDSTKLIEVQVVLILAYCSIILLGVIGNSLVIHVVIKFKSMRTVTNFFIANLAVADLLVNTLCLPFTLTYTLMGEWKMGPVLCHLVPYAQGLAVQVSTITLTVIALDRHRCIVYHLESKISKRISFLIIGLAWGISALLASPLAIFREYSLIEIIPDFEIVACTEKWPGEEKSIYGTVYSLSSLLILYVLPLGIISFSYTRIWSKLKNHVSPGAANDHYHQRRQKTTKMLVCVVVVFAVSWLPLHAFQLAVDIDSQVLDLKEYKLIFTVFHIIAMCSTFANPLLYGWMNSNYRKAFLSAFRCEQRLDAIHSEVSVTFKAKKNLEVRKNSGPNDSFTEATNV
The assay can be described thus: hNPY2R CreLuc reporter gene assay in 0.5% and 100% plasma. From the text:
Example 1: hGLPR/hGIPR/hNPY2R CreLuc Assay in 0.5% and 100% Plasma
CHO and HEK-293 recombinant cell lines express a luciferase reporter gene under control of the cAMP responsive element (CRE). As a second recombinant protein the GLP-1 and NPY2 receptors were expressed in the reporter gene HEK cells, and the GIP receptor was expressed in the reporter gene CHO cells, respectively. Stimulation of these recombinant cells with an agonist leads to an increase of intracellular cAMP levels. In the presence of cAMP, the transcription factor CRE binding protein (CREB) binds to the CRE and to the CREB binding protein (CBP), which leads to transcription of the luciferase reporter gene. Peptides upon serial-dilution in 100% DMSO were transferred into 384-well assay plates with 5 μl pre-dispensed assay buffer (1×HBSS, 20 mM HEPES, pH7.4 supplemented with 0.5% human plasma) using acoustic dispensing on a Labcyte ECHO. Cryo-preserved transgenic reporter gene cells were thawed in assay buffer. 20 μl (10.000 cells/well) were added to the plate with the peptides and incubated for 4 hours at 37° C. in a humidified incubator. Following incubation, assay plates are equilibrated to room temperature, followed by addition of 25 μl of Bright-GIo™ Luciferase reagent, incubation at room temperature for 10 minutes and analysis of luminescence (Envision Reader). Concentration response evaluation of compounds was performed with 8 concentrations of peptides (covering four decades). EC50 values were calculated by non-linear regression using sigmoid concentration-response with variable slope. The same assays were run in the presence of 100% plasma with no additional buffer constituents.

The next assay deals with T3, hGLP1R (Homo sapiens, UniProt P43220).
T3 construct: expressed in transfected cells; host or cells: HEK-293 cells carrying a CRE-luciferase reporter gene
T3 sequence (P43220 24-463): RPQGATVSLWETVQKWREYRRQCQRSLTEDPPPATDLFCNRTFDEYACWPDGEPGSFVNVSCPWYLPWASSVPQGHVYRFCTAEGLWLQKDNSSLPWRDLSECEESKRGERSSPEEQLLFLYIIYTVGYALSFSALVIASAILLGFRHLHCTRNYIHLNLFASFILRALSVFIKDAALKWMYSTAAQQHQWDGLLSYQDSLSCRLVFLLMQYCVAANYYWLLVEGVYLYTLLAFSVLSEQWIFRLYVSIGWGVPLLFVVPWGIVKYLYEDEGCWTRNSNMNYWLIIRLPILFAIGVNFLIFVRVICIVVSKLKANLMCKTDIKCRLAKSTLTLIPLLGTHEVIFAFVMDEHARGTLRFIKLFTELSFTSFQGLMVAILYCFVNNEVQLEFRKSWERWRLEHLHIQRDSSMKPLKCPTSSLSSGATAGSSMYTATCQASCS
The assay can be described thus: hGLP1R CreLuc reporter gene assay in 0.5% and 100% plasma. In short, it runs like this:
as §1

Where [1] appears, read: 0.5% human plasma, read-out: hGIPR 0.5% hP.
[2] abbreviates: 0.5% human plasma, read-out: hNPY2R 0.5% hP.
Setting [3] is: 100% human plasma, read-out: hGIPR 100% hP.
[4] abbreviates: 100% human plasma, read-out: hNPY2R 100% hP.
Where [5] appears, read: 0.5% human plasma, read-out: hGLP1R 0.5% hP.

Read-outs that look alike come from different tables or passages of the source. Starred links: 1 amine or outer side, 2 acyl side, 3 side chain; linkers in the order of their positions; H or OH if unused. Non-standard residues stand in square brackets, D forms with d. Groups on a side chain read outwards from the residue. No end group written: not given here. *: point of attachment. C20 diacid = O=C(O)CCCCCCCCCCCCCCCCCCC(=O)*; C18 diacid = O=C(O)CCCCCCCCCCCCCCCCC(=O)*; γGlu = O=C(O)[C@H](CCC(=O)[*:2])N[*:1]; εLys = N[C@@H](CCCCN[*:1])C(=O)[*:2]; AEEA = NCCOCCOCC(=O)O; Aib = CC(C)(N)C(=O)O

“H-Y[Aib]EGTFTSDYSI[Aib]LAAAAQ[Aib]AFVEWLIK([εLys-γGlu-γGlu-γGlu-γGlu-γGlu-γGlu-C20 diacid])GGPSSGASLRHYYNWLTRQRY-NH2 [Compound 20, Y-Aib-E-G-T-F-T-S-D-Y-S-I-Aib-L-A-A-A-A-Q-Aib-A-F-V-E-W-L-I-K(1,3)-GGPSSGASLRHYYNWLTRQRY-NH2.C20DA-gGlu-gGlu-gGlu-gGlu-gGlu-gGlu-eLys(1,2)]”: the EC50 on hGIPR (setting [1]) worked out at 0.93 nM; on hNPY2R (setting [2]), 19.1 nM.
Turning to “H-Y[Aib]EGTFTSDYSI[Aib]LEKQAE[Aib]AFVEWLIK([AEEA-AEEA-γGlu-γGlu-γGlu-γGlu-C18 diacid])GGPSEGASLRHYYNWLTRQRY-NH2 [Compound 251, Y-Aib-E-G-T-F-T-S-D-Y-S-I-Aib-L-E-K-Q-A-E-Aib-A-F-V-E-W-L-I-K(1,3)-GGPSEGASLRHYYNWLTRQRY-NH2.C18DA-gGlu-gGlu-gGlu-gGlu-OEG-OEG(1,2)]”, the EC50 on hGIPR (setting [1]) was 0.16 nM; on hGIPR (setting [3]), 0.98 nM; on hNPY2R (setting [2]), 20.6 nM; on hNPY2R (setting [4]), 48.7 nM.
On to “H-Y[Aib]EGTFTSDYSI[Aib]LEKQAQ[Aib]AFVEWLIK([εLys-γGlu-γGlu-γGlu-γGlu-γGlu-γGlu-C20 diacid])GGPRYYASLRHYYNWLTRQRY-NH2 [Compound 62, Y-Aib-E-G-T-F-T-S-D-Y-S-I-Aib-L-E-K-Q-A-Q-Aib-A-F-V-E-W-L-I-K(1,3)-GGPRYYASLRHYYNWLTRQRY-NH2.C20DA-gGlu-gGlu-gGlu-gGlu-gGlu-gGlu-eLys(1,2)]”, for which the EC50 at hGIPR (setting [1]) is 0.48 nM; on hNPY2R (setting [2]), 13.6 nM; at hNPY2R (setting [4]), 40.5 nM.
In the case of “H-Y[Aib]EGTFTSDYSI[Aib]LEKQAQ[Aib]AFVEWLIK([εLys-γGlu-γGlu-γGlu-γGlu-γGlu-γGlu-C20 diacid])GGPSEGVSLRHYYNWLTRQRY-NH2 [Compound 241, Y-Aib-E-G-T-F-T-S-D-Y-S-I-Aib-L-E-K-Q-A-Q-Aib-A-F-V-E-W-L-I-K(1,3)-GGPSEGVSLRHYYNWLTRQRY-NH2.C20DA-gGlu-gGlu-gGlu-gGlu-gGlu-gGlu-eLys(1,2)]”, the figures for the EC50 on hGIPR (setting [1]), at hGIPR (setting [3]) and on hNPY2R (setting [2]) were 0.69 nM, 4.36 nM and 16.7 nM, respectively.
In the case of “H-Y[Aib]EGTFTSDYSI[Aib]LEKQAQ[Aib]AFVQWLIK([εLys-γGlu-γGlu-γGlu-γGlu-γGlu-C20 diacid])GGPEEPASLRHYYNWLTRQRY-NH2 [Compound 67, Y-Aib-E-G-T-F-T-S-D-Y-S-I-Aib-L-E-K-Q-A-Q-Aib-A-F-V-Q-W-L-I-K(1,3)-GGPEEPASLRHYYNWLTRQRY-NH2.C20DA-gGlu-gGlu-gGlu-gGlu-gGlu-eLys(1,2)]”, the figures for the EC50 on hGIPR (setting [1]), on hNPY2R (setting [2]) and at hNPY2R (setting [4]) were 0.29 nM, 13.7 nM and 78.9 nM, respectively.
On the same counts, the results for “H-Y[Aib]EGTFTSDYSI[Aib]LEKQAQ[Aib]AFVQWLIK([εLys-γGlu-γGlu-γGlu-γGlu-γGlu-γGlu-C20 diacid])GGPSEYVSLRHYYNWLTRQRY-NH2 [Compound 78, Y-Aib-E-G-T-F-T-S-D-Y-S-I-Aib-L-E-K-Q-A-Q-Aib-A-F-V-Q-W-L-I-K(1,3)-GGPSEYVSLRHYYNWLTRQRY-NH2.C20DA-gGlu-gGlu-gGlu-gGlu-gGlu-gGlu-eLys(1,2)]” are 0.53 nM, 12.9 nM and 24.6 nM.
In the case of “H-Y[Aib]EGTFTSDYSI[Aib]LEKQAQ[Aib]EFVEWLIK([AEEA-AEEA-γGlu-γGlu-γGlu-C18 diacid])GGPESGASLRHYYNWLTRQRY-NH2 [Compound 81, Y-Aib-E-G-T-F-T-S-D-Y-S-I-Aib-L-E-K-Q-A-Q-Aib-E-F-V-E-W-L-I-K(1,3)-GGPESGASLRHYYNWLTRQRY-NH2.C18DA-gGlu-gGlu-gGlu-OEG-OEG(1,2)]”, the EC50 on hGIPR (setting [1]) stood at 0.27 nM; on hNPY2R (setting [2]) it was 11.1 nM.
With “H-Y[Aib]EGTFTSDYSI[Aib]LEKQAQ[Aib]EFVEWLIK([AEEA-AEEA-γGlu-γGlu-γGlu-C20 diacid])GGPSEGASLRHYYNWLTRQRY-NH2 [Compound 273, Y-Aib-E-G-T-F-T-S-D-Y-S-I-Aib-L-E-K-Q-A-Q-Aib-E-F-V-E-W-L-I-K(1,3)-GGPSEGASLRHYYNWLTRQRY-NH2.C20DA-gGlu-gGlu-gGlu-OEG-OEG(1,2)]”, the EC50 is 0.38 nM at hGIPR (setting [1]), 1.52 nM at hGIPR (setting [3]) and 19.3 nM on hNPY2R (setting [2]).
On the same counts, the results for “H-Y[Aib]EGTFTSDYSI[Aib]LEKQAQ[Aib]EFVEWLIK([εLys-γGlu-γGlu-γGlu-γGlu-γGlu-γGlu-C20 diacid])GGPSSGASLRHYYNWLTRQRY-NH2 [Compound 215, Y-Aib-E-G-T-F-T-S-D-Y-S-I-Aib-L-E-K-Q-A-Q-Aib-E-F-V-E-W-L-I-K(1,3)-GGPSSGASLRHYYNWLTRQRY-NH2.C20DA-gGlu-gGlu-gGlu-gGlu-gGlu-gGlu-eLys(1,2)]” are 0.5 nM, 2.94 nM and 12.4 nM.
Regarding “H-Y[Aib]EGTFTSDYSI[Aib]LE[Aib]KAQ[Aib]EFVEWLIK([εLys-γGlu-γGlu-γGlu-γGlu-γGlu-γGlu-C20 diacid])GGPSSGASLRHYYNWLTRQRY-NH2 [Compound 24, Y-Aib-E-G-T-F-T-S-D-Y-S-I-Aib-L-E-Aib-K-A-Q-Aib-E-F-V-E-W-L-I-K(1,3)-GGPSSGASLRHYYNWLTRQRY-NH2.C20DA-gGlu-gGlu-gGlu-gGlu-gGlu-gGlu-eLys(1,2)]”, the EC50 on hNPY2R (setting [2]) worked out at 26.8 nM.
For the substance “Y[Aib]EGTFTSDYSI[Aib]LEKQAE[Aib]AFVQWLIK([AEEA-AEEA-γGlu-γGlu-γGlu-γGlu-C20 diacid])GGPSEGASLRHYYNWLTRQRY-NH2 [Compound 219, Y-Aib-E-G-T-F-T-S-D-Y-S-I-Aib-L-E-K-Q-A-E-Aib-A-F-V-Q-W-L-I-K(1,3)-GGPSEGASLRHYYNWLTRQRY-NH2.C20DA-gGlu-gGlu-gGlu-gGlu-OEG-OEG(1,2)]”, the EC50 at hGIPR (setting [1]) turned out to be 0.46 nM; on hGIPR (setting [3]), 2.43 nM; on hNPY2R (setting [2]), 12.8 nM; on hNPY2R (setting [4]), 43.4 nM.
Consider “Y[Aib]EGTFTSDYSI[Aib]LEKQAQ[Aib]AFVQWLIK([AEEA-AEEA-γGlu-γGlu-γGlu-C18 diacid])GGPSEGASLRHYYNWLTRQRY-NH2 [Compound 266, Y-Aib-E-G-T-F-T-S-D-Y-S-I-Aib-L-E-K-Q-A-Q-Aib-A-F-V-Q-W-L-I-K(1,3)-GGPSEGASLRHYYNWLTRQRY-NH2.C18DA-gGlu-gGlu-gGlu-OEG-OEG(1,2)]”, for which the EC50 on hGLP1R (setting [5]) was 0.1 nM; on hGLP1R (100% human plasma, read-out: hGLP1R 100% hP), 2.21 nM; at hGIPR (setting [1]), 0.13 nM; on hGIPR (setting [3]), 0.65 nM.
As for “Y[Aib]EGTFTSDYSI[Aib]LEKQAQ[Aib]EFVQWLIK([AEEA-AEEA-γGlu-γGlu-γGlu-C18 diacid])GGPSEGASLRHYYNWLTRQRY-NH2 [Compound 160, Y-Aib-E-G-T-F-T-S-D-Y-S-I-Aib-L-E-K-Q-A-Q-Aib-E-F-V-Q-W-L-I-K(1,3)-GGPSEGASLRHYYNWLTRQRY-NH2.C18DA-gGlu-gGlu-gGlu-OEG-OEG(1,2)]”, the EC50 is 0.3 nM at hGLP1R (setting [5]), 0.33 nM on hGIPR (setting [1]) and 0.91 nM at hGIPR (setting [3]).
